Assay results from US10253052B2, “HBED-bisphosphonates, radiometal conjugates and their use as theranostic agents” (Five Eleven Pharma Inc., priority 2015, dated 2019).
“Also recorded” adds a separate entry of the source.

Experiments:
[1] = In vivo biodistribution in mice; parameters: species or system normal CD-1 male mice; settings: iv
Procedure, shortened: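 Normal male CD-1 mice (25-30 g) received 20-30 μCi of ^68Ga-labelled tracer or [^18F]NaF intravenously and were sacrificed at 2, 30, 60 and 120 min. Harvested organs, with tibia and femur as bone, were weighed and gamma-counted; uptake is expressed as % ID/g wet tissue.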

[2] = In vitro binding to hydroxyapatite; settings: 20 mg hydroxyapatite in saline, 10 min at room temperature
Procedure, shortened: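 Hydroxyapatite was pre-incubated 24 h in isotonic saline, then ^68Ga-labelled compound (1 μCi) was added and incubated 10 min at room temperature. After centrifugation and two saline washes, gamma counting of supernatants and solid gave percent ^68Ga bound to hydroxyapatite.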

[3] = test system: PSMA positive LNCaP cells; experiment: Cell uptake in PSMA positive LNCaP cells; type: cell-based; settings: 1 hr incubation at 37° C.
PSMA negative PC3 cells = experiment: Cell uptake in PSMA negative PC3 cells; type: cell-based; settings: 1 hr incubation at 37° C.
[4] = test system: PSMA expressing LNCaP tumor; experiment: Micro-PET imaging in PSMA expressing tumor bearing mouse; type: in vivo, nude mice; settings: 500 μCi, 60 min post injection, 15 min scan
Protocol: [^68Ga]1a, [^68Ga]BPAMD and [^18F]NaF were tested in normal CD-1 male mice. [^68Ga]1g was tested in PSMA expressing LNCaP tumor bearing nude mice. Mice received 300-500 uCi radiotracer through a tail vein injection. PET imaging was performed under isoflurane anaesthesia (2% isoflurane, 1.5 L/min oxygen). The microPET imaging was performed with a small animal PET (Mosaic by Phillips, USA). During PET measurements, the animals were placed in the prone position. At 60 min post injection of the radiotracer, data acquisition was performed for 15 min.

With `O=C([O-])CN(CCN(CC(=O)[O-])Cc1cc(CCC(=O)NC(P(=O)(O)O)P(=O)(O)O)ccc1[O-])Cc1cc(CCC(=O)NCCCCCC(=O)NCCCC[C@H](NC(=O)N[C@@H](CCC(=O)O)C(=O)O)C(=O)O)ccc1[O-].[68Ga+3]` [[^68Ga]1g] the “bone to blood ratio” value ([1]; 2 min) was 0.97, the “bone to muscle ratio” value ([1]; 2 min) was 3.71 and the “Biodistribution: Blood” value ([1]; 2 min post injection) was 8.34 ± 0.51 % dose/g. For the same compound, the “Biodistribution: Bone” value ([1]; 2 min post injection) was 8.13 ± 1.87 % dose/g, the “Biodistribution: Brain” value ([1]; 2 min post injection) was 0.21 ± 0.03 % dose/g and the “Biodistribution: Heart” value ([1]; 2 min post injection) was 3.13 ± 0.15 % dose/g. For the same compound, the “Biodistribution: Kidney” value ([1]; 2 min post injection) was 35.3 ± 3.75 % dose/g, the “Biodistribution: Liver” value ([1]; 2 min post injection) was 1.73 ± 0.09 % dose/g and the “Biodistribution: Lung” value ([1]; 2 min post injection) was 4.19 ± 0.50 % dose/g. For the same compound, the “Biodistribution: Muscle” value ([1]; 2 min post injection) was 2.19 ± 0.11 % dose/g, the “Biodistribution: Pancreas” value ([1]; 2 min post injection) was 1.69 ± 0.13 % dose/g and the “Biodistribution: Skin” value ([1]; 2 min post injection) was 2.97 ± 0.14 % dose/g. For the same compound, the “Biodistribution: Spleen” value ([1]; 2 min post injection) was 2.50 ± 0.41 % dose/g, the “bone to blood ratio” value ([1]; 30 min) was 29 and the “bone to muscle ratio” value ([1]; 30 min) was 46. The “Biodistribution: Blood” value ([1]; 30 min (0.5 hr) post injection) was 0.56 ± 0.10 % dose/g, the “Biodistribution: Bone” value ([1]; 30 min (0.5 hr) post injection) was 16.3 ± 0.68 % dose/g and the “Biodistribution: Brain” value ([1]; 30 min (0.5 hr) post injection) was 0.03 ± 0.00 % dose/g. For the same compound, the “Biodistribution: Heart” value ([1]; 30 min (0.5 hr) post injection) was 0.45 ± 0.07 % dose/g, the “Biodistribution: Kidney” value ([1]; 30 min (0.5 hr) post injection) was 77.1 ± 8.24 % dose/g and the “Biodistribution: Liver” value ([1]; 30 min (0.5 hr) post injection) was 0.27 ± 0.02 % dose/g. For the same compound, the “Biodistribution: Lung” value ([1]; 30 min (0.5 hr) post injection) was 1.02 ± 0.13 % dose/g, the “Biodistribution: Muscle” value ([1]; 30 min (0.5 hr) post injection) was 0.35 ± 0.02 % dose/g and the “Biodistribution: Pancreas” value ([1]; 30 min (0.5 hr) post injection) was 0.69 ± 0.02 % dose/g. For the same compound, the “Biodistribution: Skin” value ([1]; 30 min (0.5 hr) post injection) was 0.65 ± 0.05 % dose/g, the “Biodistribution: Spleen” value ([1]; 30 min (0.5 hr) post injection) was 2.09 ± 0.75 % dose/g and the “bone to blood ratio” value ([1]; 60 min) was 53. For the same compound, the “bone to muscle ratio” value ([1]; 60 min) was 74, the “Biodistribution: Blood” value ([1]; 60 min (1 hr) post injection) was 0.28 ± 0.05 % dose/g and the “Biodistribution: Bone” value ([1]; 60 min (1 hr) post injection) was 15.1 ± 1.04 % dose/g. For the same compound, the “Biodistribution: Brain” value ([1]; 60 min (1 hr) post injection) was 0.03 ± 0.01 % dose/g, the “Biodistribution: Heart” value ([1]; 60 min (1 hr) post injection) was 0.32 ± 0.03 % dose/g and the “Biodistribution: Kidney” value ([1]; 60 min (1 hr) post injection) was 78.4 ± 7.11 % dose/g. The “Biodistribution: Liver” value ([1]; 60 min (1 hr) post injection) was 0.18 ± 0.01 % dose/g, the “Biodistribution: Lung” value ([1]; 60 min (1 hr) post injection) was 0.58 ± 0.02 % dose/g and the “Biodistribution: Muscle” value ([1]; 60 min (1 hr) post injection) was 0.21 ± 0.02 % dose/g. The “Biodistribution: Pancreas” value ([1]; 60 min (1 hr) post injection) was 0.37 ± 0.07 % dose/g, the “Biodistribution: Skin” value ([1]; 60 min (1 hr) post injection) was 0.42 ± 0.06 % dose/g and the “Biodistribution: Spleen” value ([1]; 60 min (1 hr) post injection) was 0.91 ± 0.13 % dose/g. For the same compound, the “bone to blood ratio” value ([1]; 120 min) was 98, the “bone to muscle ratio” value ([1]; 120 min) was 98 and the “Biodistribution: Blood” value ([1]; 120 min post injection) was 0.17 ± 0.03 % dose/g. For the same compound, the “Biodistribution: Bone” value ([1]; 120 min post injection) was 17.0 ± 0.05 % dose/g, the “Biodistribution: Brain” value ([1]; 120 min post injection) was 0.02 ± 0.00 % dose/g and the “Biodistribution: Heart” value ([1]; 120 min post injection) was 0.20 ± 0.03 % dose/g. The “Biodistribution: Kidney” value ([1]; 120 min post injection) was 70.3 ± 8.29 % dose/g, the “Biodistribution: Liver” value ([1]; 120 min post injection) was 0.18 ± 0.02 % dose/g and the “Biodistribution: Lung” value ([1]; 120 min post injection) was 0.47 ± 0.04 % dose/g. The “Biodistribution: Muscle” value ([1]; 120 min post injection) was 0.17 ± 0.04 % dose/g, the “Biodistribution: Pancreas” value ([1]; 120 min post injection) was 0.34 ± 0.03 % dose/g and the “Biodistribution: Skin” value ([1]; 120 min post injection) was 0.29 ± 0.06 % dose/g. The “Biodistribution: Spleen” value ([1]; 120 min post injection) was 0.87 ± 0.20 % dose/g, the “Hydroxyapatite Binding (%)” value [2] was 88.0 ± 10.5% and the “Cell uptake in PSMA positive LNCaP cells (in words)” value [3] was “high cell uptake and retention only in LNCaP cells; also recorded: excellent uptake”. The “Cell uptake in PSMA negative PC3 cells (in words)” value (PSMA negative PC3 cells) was “no uptake” and the “Micro-PET targeting (in words)” value [4] was “targets both bone and PSMA binding sites”.
